In patent EP1205473A1, “VESAMICOL PIPERAZINE DERIVATIVES AND DRUGS CONTAINING THE SAME” (DAIICHI RADIOISOTOPE LABORATORIES, LTD., priority 1999, dated 2001):
Read-outs that look alike come from different tables or passages of the source.

Legend:
vesamicol receptors [1] = target: T1, vesamicol receptors (Rattus norvegicus, UniProt Q62666); experiment: Inhibition experiment: inhibition of binding of radioactive-iodine-labeled DRC140 to P2 fractions; parameters: Synaptic vesicles were extracted and separated from the brain of a rat; from tissue; host or cells: rat brain without cerebellum: P2, crude synaptic vesicles, purified synaptic vesicles
T1 sequence (Q62666 1-530): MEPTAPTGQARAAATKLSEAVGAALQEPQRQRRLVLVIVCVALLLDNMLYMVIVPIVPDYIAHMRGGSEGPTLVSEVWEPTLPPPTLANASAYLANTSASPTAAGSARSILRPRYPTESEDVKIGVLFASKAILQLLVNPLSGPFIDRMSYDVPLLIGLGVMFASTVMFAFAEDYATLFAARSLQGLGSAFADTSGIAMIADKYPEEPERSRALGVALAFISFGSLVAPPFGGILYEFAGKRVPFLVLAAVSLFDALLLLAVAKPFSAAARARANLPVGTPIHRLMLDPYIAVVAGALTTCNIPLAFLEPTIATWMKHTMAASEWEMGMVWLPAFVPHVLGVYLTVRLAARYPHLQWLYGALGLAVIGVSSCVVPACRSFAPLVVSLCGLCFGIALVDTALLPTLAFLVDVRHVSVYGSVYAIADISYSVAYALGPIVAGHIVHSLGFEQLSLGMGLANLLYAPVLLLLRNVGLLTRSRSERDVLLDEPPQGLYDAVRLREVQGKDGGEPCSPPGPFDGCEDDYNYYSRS

[2] = target: serotonin 5-HT2A receptors (Rattus norvegicus, UniProt P14842); experiment: Receptor binding test: inhibition of tritium-labeled ketanserin binding to brain homogenate; parameters: species or system Male Wistar rats
vesamicol receptors [3] = target: T1, vesamicol receptors; experiment: Receptor binding test: inhibition of I-125 labeled 5-iodobenzo vesamicol binding to brain homogenate; parameters: from tissue; host or cells: rat brain without cerebellum, P2 fraction; species or system Male Wistar rats; conditions: Inhibitive concentration at 50% (IC50), Vesamicol receptor, Table 5; incubated three hours at 37°C; no unit printed in table (b19 gives nM for DRC140)
Protocol: (§1) Properties relating to binding of the vesamicol piperazine derivatives of the present invention to various receptors were examined as follows. Specifically, ligands which combine with each receptor were incubated together with homogenates prepared as follows.
To measure affinity of vesamicol receptors, I-125 labeled 5-iodobenzo vesamicol (synthesized and labeled according to Jung et al., J. Med. Chem. 33, 2065-2068, 1990) was added to a brain homogenate prepared as follows. The vesamicol piperazine derivatives synthesized in the Examples were added at various concentrations. The mixture was then incubated for three hours at 37°C.
(§2) B (%) =((1 0 0 × [U])^(∩))/([ I C50 (])^(∩) (+ [U])^(∩)) [formula] wherein B(%) is the proportion of specific binding in the total binding, n indicates a Hill coefficient, and U is the concentration of unbound ligand.
Male Wistar rats were anesthetized with ether and were decapitated. The brains were immediately extracted. The cerebella were removed from the brains. 0.32 M sucrose (containing 4 mM HEPES (pH 7.4)) in an amount of five times the wet amount (weight) of this sample was added. The sample was homogenized by a potter-type homogenizer for 12 strokes while cooling with ice. 0.32 M sucrose in the same amount as the homogenate (total: 10 times the wet amount of the original sample) was added. The suspension thus obtained was centrifuged for 5 minutes at 1,000 x g. The precipitate was removed. The supernatant liquid was centrifuged at 9,200 x g for 15 minutes to separate the precipitate from the supernatant liquid. P2 fractions were suspended in a Tris-HCl buffer (pH 7.4) for binding experiments and stored at -80°C until the start of the binding experiment.

sigma receptors = target: T2, sigma receptors (Cavia porcellus, UniProt Q60492); experiment: Receptor binding test: inhibition of tritium-labeled (+) pentazocine binding to brain homogenate; parameters: species or system male guinea pig
T2 construct: The brain was immediately extracted; The cerebellum was removed from the brain; from tissue; host or cells: guinea pig brain without cerebellum, membrane pellet
Protocol: as §1
To measure affinity to sigma receptors, tritium-labeled (+) pentazocine was added to a brain homogenate prepared as follows. The vesamicol piperazine derivatives synthesized in the Examples were added at various concentrations, and the mixture was incubated for two hours at room temperature.
as §2
A male guinea pig was anesthetized with ether and was decapitated. The brain was immediately extracted. The cerebellum was removed from the brain. 10 mM Tris-sucrose buffer solution (0.32 M sucrose + 10 mM Tris-HCl (pH 7.4)) was added in the amount of 10 ml/g of the tissue. The mixture was homogenized by a potter-type homogenizer for 6-10 strokes. The homogenate was centrifuged at 1,000 x g for 10 minutes at 4°C and the supernatant liquid was collected. The resulting pellets were suspended in the Tris-sucrose buffer solution at the concentration of 2 ml/g, followed by centrifugation at 1,000 x g for 10 minutes at 4°C. The supernatant liquids obtained by the two centrifugation at 1,000 x g were combined and centrifuged at 31,000 x g for 15 minutes at 4°C. The resulting pellets were suspended in a 10 mM Tris-HCl buffer solution (pH 7.4) at a concentration of 3 ml/g of tissue and incubated for 30 minutes at 25°C. After incubation, the suspension was centrifuged at 31,000 x g for 15 minutes at 4°C. The pellets obtained were suspended in a 10 mM Tris-HCl buffer solution (pH 7.4) to make a final concentration of 1.53 ml/g of tissue. The suspension was homogenized by a potter-type homogenizer for 5 strokes. The homogenate was stored at -80°C until the start of the experiment.

[4] = target: T3, serotonin 5-HT1A receptors (Rattus norvegicus, UniProt P19327); experiment: Receptor binding test: inhibition of tritium-labeled 8-hydroxy-DPAT binding to brain (hippocampus) homogenate; parameters: species or system Male Wistar rats
T3 construct: The hippocampi were immediately collected from the brains; from tissue; host or cells: rat hippocampus membranes
T3 sequence (P19327 1-422): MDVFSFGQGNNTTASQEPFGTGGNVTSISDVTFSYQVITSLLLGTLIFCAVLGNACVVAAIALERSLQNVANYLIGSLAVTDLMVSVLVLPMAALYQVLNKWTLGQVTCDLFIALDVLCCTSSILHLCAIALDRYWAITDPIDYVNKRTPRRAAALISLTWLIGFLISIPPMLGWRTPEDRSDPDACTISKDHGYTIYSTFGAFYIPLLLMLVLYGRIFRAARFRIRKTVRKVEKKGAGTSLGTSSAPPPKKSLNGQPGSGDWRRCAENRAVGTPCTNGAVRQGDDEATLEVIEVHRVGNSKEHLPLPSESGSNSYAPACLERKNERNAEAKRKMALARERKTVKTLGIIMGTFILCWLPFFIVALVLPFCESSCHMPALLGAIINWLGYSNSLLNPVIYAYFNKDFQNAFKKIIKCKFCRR
Protocol: as §1
To measure affinity to serotonin 5-HT1A receptors, tritium-labeled 8-hydroxy-DPAT was added to a brain homogenate prepared as follows. The vesamicol piperazine derivatives synthesized in the Examples were added at various concentrations, and the mixture was incubated for 30 minutes at 37°C. To measure affinity to serotonin 5-HT2A receptors, tritium-labeled ketanserin was added to a brain homogenate prepared as follows. The vesamicol piperazine derivatives synthesized in the Examples were added at various concentrations, and the mixture was incubated for 15 minutes at 37°C.
as §2
Male Wistar rats were anesthetized with ether and were decapitated and the brains quickly extracted. The hippocampi were immediately collected from the brains. A 40-fold (vol/wt) amount of ice cooled 50 mM Tris-HCl buffer (pH 7.4) was added to the hippocampi. The mixture was homogenized using a potter-type homogenizer. The homogenate was centrifuged at 40,000 x g for 20 minutes. The supernatant liquid was removed and the resulting pellets were suspended in a 40-fold amount of Tris-HCl buffer solution. The suspension was centrifuged and the Tris buffer solution was again added to the pellets. This procedure was repeated twice. The product thus obtained was homogenized using a 40-fold amount of Tris-HCl buffer solution and incubated for 10 minutes at 37°C to remove endogenic 5-HT. The cell membrane was collected by centrifugation, washed twice, and suspended in a 10-fold amount of 50 mM Tris-HCl buffer solution (pH 7.4). The suspension thus obtained was stored at -80°C until the start of the binding experiment.

vesamicol receptors [5] = target: T1, vesamicol receptors; experiment: Inhibition experiment: inhibition of binding of radioactive-iodine-labeled DRC140 to purified synaptic vesicle fractions; parameters: Synaptic vesicles were extracted and separated from the brain of a rat; from tissue; host or cells: rat brain without cerebellum: P2, crude synaptic vesicles, purified synaptic vesicles
adrenaline α1 receptors = experiment: Receptor binding test: inhibition of tritium-labeled prazosin binding to brain homogenate; parameters: species or system Male Wistar rats; conditions: read-out: inhibitive concentration at 50% (IC50), Receptor Alpha-1; Table 9; high purity derivatives; unit inferred
[6] = inhibitive concentration at 50% (IC50), Receptor Vesamicol
[7] = read-out: inhibitive concentration at 50% (IC50), Receptor Sigma-1

Chain of serotonin 5-HT2A receptors (P14842 whole entry): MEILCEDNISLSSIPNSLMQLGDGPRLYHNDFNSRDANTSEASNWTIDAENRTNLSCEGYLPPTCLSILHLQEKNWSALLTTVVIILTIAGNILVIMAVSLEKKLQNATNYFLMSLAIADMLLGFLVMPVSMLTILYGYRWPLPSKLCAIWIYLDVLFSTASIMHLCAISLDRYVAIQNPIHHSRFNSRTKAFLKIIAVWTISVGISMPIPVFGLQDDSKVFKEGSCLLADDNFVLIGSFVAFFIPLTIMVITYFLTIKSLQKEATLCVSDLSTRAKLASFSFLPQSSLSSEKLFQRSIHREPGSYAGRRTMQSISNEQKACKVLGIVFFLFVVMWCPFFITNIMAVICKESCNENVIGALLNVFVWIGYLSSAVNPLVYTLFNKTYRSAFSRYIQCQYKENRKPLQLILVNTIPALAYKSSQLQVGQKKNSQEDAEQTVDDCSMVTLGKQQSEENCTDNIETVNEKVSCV
T2 sequence (Q60492 whole entry): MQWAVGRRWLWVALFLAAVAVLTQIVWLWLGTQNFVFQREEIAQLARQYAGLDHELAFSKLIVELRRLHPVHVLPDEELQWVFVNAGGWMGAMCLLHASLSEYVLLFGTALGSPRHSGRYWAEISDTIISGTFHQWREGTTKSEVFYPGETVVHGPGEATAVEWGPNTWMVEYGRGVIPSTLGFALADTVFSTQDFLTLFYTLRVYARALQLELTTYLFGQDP

SMILES | IC50 (vesamicol receptors [1]; [6]) [nM] | IC50 ([2]; read-out: Inhibitive concentration at 50% (IC50), Serotonin receptor 5-HT2A) [nM] | IC50 (vesamicol receptors [3]) [nM] | IC50 (sigma receptors; read-out: Inhibitive concentration at 50% (IC50), Sigma α-1 receptor) [nM] | IC50 (sigma receptors; [7]) [nM] | IC50 ([4]; read-out: Inhibitive concentration at 50% (IC50), Serotonin receptor 5-HT1A) [nM] | IC50 (vesamicol receptors [1]; IC50 (nM) Average ± S.D) [nM] | IC50 [2] [nM] | IC50 (sigma receptors) [nM] | IC50 (vesamicol receptors [5]) [nM] | IC50 [4] [nM] | IC50 (vesamicol receptors [1]; read-out: inhibitive concentration at 50% (IC50), Receptor Vesamicol) [nM] | IC50 ([2]; read-out: inhibitive concentration at 50% (IC50), Receptor 5-HT2A) [nM] | IC50 (adrenaline α1 receptors) [nM] | IC50 ([4]; read-out: inhibitive concentration at 50% (IC50), Receptor 5-HT1A) [nM]
Cc1ccc(C)c(N2CCN([C@@H]3Cc4c(I)cccc4C[C@H]3O)CC2)c1 (single isomer, unassigned) [DRE350, (-)-trans-5-iodo-2-hydroxy-3-[4-[2,5-dimethylphenyl]piperazinyl]tetralin] | 0.83 | > 20000 | 0.58 | 1500 | 5550 | 240 |  |  |  |  |  |  |  |  | 
OC1CCCCC1N1CCC(c2ccccc2)CC1 (single isomer, unassigned; (-)) [(-)-Vesamicol, 2-(4-phenyl-piperidino)cyclohexanol, reference compound] | 45.4 |  |  |  |  |  | 58.2 ± 17.3 | > 5000 | 66.5 | 45.4 ± 3.59 | > 5000 |  |  |  | 
O[C@@H]1Cc2cccc(I)c2C[C@H]1N1CCC(c2ccccc2)CC1 [(-)-IBVM, 5-iodobenzovesamicol, reference compound] |  |  |  |  | 174 |  |  |  |  |  |  | 0.32 | > 5000 | 2.61 | 119
